# From US20240215873A1, “Aptamer Sensors with Temperature Correction” (University of Cincinnati, priority 2021, published 2024)
# Conditions: room temperature; saturated concentration of target analyte; 20 mM tris buffer
# Description: The sensors were all interrogated in 20 mM tris buffer (20 mM trizma base, 100 mM NaCl and 5 mM MgCl2). FIG. 5 illustrates the equilibration of a sensor response with or without the presence of analyte target such as ATP, Tobramycin, or Cocaine.
# The aptamers were equilibrated, interrogated, and regenerated in tris buffer at 1° C., 22° C. and 37° C. […] The performance of each E-AB sensor was characterized to determine their expected response in room temperature (RT).
# To fabricate the E-AB sensors, the 2 mm diameter gold disk macro electrodes (CH Instruments, Austin, TX) were hand polished for 2 min in a 1 μm diamond slurry (Buehler, Lake Bluff, IL) followed by polishing for 2 min in 0.05 μm alumina oxide slurry (Buehler, Lake Bluff, IL). All electrodes were rinsed with ultrapure water (Milli-Q Ultrapure Water Purification, Millipore, Billerica, MA, U.S.A.). To remove particulates, the electrodes were sonicated in a low power sonicator for 5 min. Next, the electrodes were electrochemically cleaned in various concentrations of sodium hydroxide and sulfuric acid solutions. Sensor fabrication consists of numerous steps of incubation. First, 2 uL of 100 mM TCEP was added to 1 μL of aptamer and left to incubate for 1 h to perform a disulfide bond reaction. […]
substance,measurement,value
cocaine,percent signal change (increase in current),56%
